We go through 23 molecules from ChEMBL document CHEMBL4152195, “Lipid reducing activity and toxicity profiles of a library of polyphenol derivatives” (Eur J Med Chem, 2018).

The test system of series [1] is 3T3-L1. The experiment in a line: Cytotoxicity against mouse 3T3L1 cells at 50 uM after 48 hrs by sulforhodamine B assay. The following applies: 3t3-l1, 48 h. It counts as cell-based.
The subject of series [2] is 3T3-L1. Kind of series: Cytotoxicity against mouse 3T3L1 cells at 50 uM after 24 hrs by sulforhodamine B assay. It counts as cell-based. Particulars: 3t3-l1, 24 h.
The species named for series [3] is Danio rerio. The experiment in a line: Lipid lowering activity in zebrafish embryos by Nile red fat metabolism assay. It counts as functional, organism-based.
Series [4] is filed under the species Danio rerio. Kind of series: Lipid lowering activity in zebrafish embryos at 5 uM by Nile red fat metabolism assay. It counts as functional, organism-based.
Series [5] is filed under the species Danio rerio. The experiment in a line: Toxicity in zebra fish larvae at 5 uM after 48 hrs. It counts as organism-based. The following applies: zebrafish, in vivo.
For series [6], the species on record is Danio rerio. Kind of series: Downregulation of fasn mRNA expression in zebra fish larvae at lipid lowering activity EC50 after 48 hrs by RT-PCR analysis. In kind it is functional.
The species entered for series [7] is Danio rerio. The experiment in a line: Toxicity in zebra fish larvae assessed as induction of malformation at 50 uM after 24 to 48 hrs. It counts as organism-based. The following applies: zebrafish, in vivo.
The species entered for series [8] is Danio rerio. The experiment in a line: Lipid lowering activity in zebrafish embryos 50 uM by Nile red fat metabolism assay. It counts as functional, organism-based.

SMILES strings stand for the structures. The source made the active and inactive calls. The rule behind the calls is not given here.

Broadly, the EC50 is the midpoint of the concentration-response curve. The low end stands for greater potency, the high end for weaker potency. `COc1c2c(cc3c(=O)c4cc(C)ccc4oc13)CCC(C)(C)O2`: the Activity in series [1] was in the range of 0 to 25%; in series [2], 0 to 50%; in series [5], 0 to 25%. For the same molecule, in series [3], a half-maximal response (EC50) required 420 nM. Moreover, the outcome in series [4] was Active.

For `O=c1c2ccccc2oc2cc(O)c(O)cc12`, the Activity in series [1], in series [2] and in series [5] was 0 to 25% in each case. Further, the EC50 in series [3] is 980 nM. Also, the result in series [4] was Active.

For the molecule `CC1(C)C=Cc2cc3c(=O)c4ccccc4oc3c(O)c2O1`, the Activity in series [1], in series [2] and in series [5] was 0 to 25% in each case. Also, the concentration for a half-maximal effect (EC50) in series [3] came out at 1440 nM. Also, the outcome in series [4] was Active.

For `COc1cc2oc3ccccc3c(=O)c2cc1OC`, the Activity in series [1], in series [2] and in series [5] was 0 to 25% in each case. For the same molecule, in series [6], the “fold change (FC)” value is on record as 2. This molecule displayed an EC50 in series [3] of 280 nM. Also, the outcome in series [4] was Active.

With `COC(=O)COc1ccc2c(=O)c3ccc(OCC(=O)OC)cc3oc2c1`, the Activity in series [1], in series [2] and in series [5] was 0 to 25% in each case. In series [3], the EC50 was 1670 nM. Further, in series [4], the result was Active.

`CCCOc1ccc(NCC(C)C)c2c(=O)c3ccccc3sc12`: the Activity in series [1], in series [2] and in series [5] was 0 to 25% each time. Also, in series [6], the result was inactive. Further, the EC50 in series [3] is 70 nM. For the same molecule, the outcome in series [4] was Active.

`COc1cccc2oc3ccccc3c(=O)c12`: the Activity in series [1], in series [2] and in series [5] was 0 to 25% each time. This molecule returned a concentration giving a half-maximal response (EC50) in series [3] of 790 nM. Also, the outcome in series [4] was Active.

For the molecule `COc1ccc2oc3ccccc3c(=O)c2c1OC`, the Activity in series [1], in series [2] and in series [5] was 0 to 25% each time. The molecule further yielded an EC50 in series [3] of 620 nM. For the same molecule, the outcome in series [4] was Active.

For `O=c1c2cc(O)ccc2oc2cccc(O)c12`, the Activity entry in series [7] was “Toxic”; in series [1], 0 to 25%; in series [2], 0 to 25%; in series [5], 0 to 25%.

`COc1ccc2c(=O)c3ccccc3oc2c1OC`: the Activity in series [1], in series [2] and in series [5] was 0 to 25% each time. In addition, the response in series [3] was half-maximal at 360 nM (EC50). The result in series [4] was Active.

With `O=c1c2ccccc2oc2cccc(O)c12`, the Activity in series [1], in series [2] and in series [5] was 0 to 25% throughout. Moreover, in series [3], a half-maximal response (EC50) required 620 nM. In addition, the outcome in series [4] was Active.

Turning to `CC1(C)C=Cc2c(cc3c(=O)c4ccccc4oc3c2O)O1`, the Activity in series [1], in series [2] and in series [5] was 0 to 25% in each case. In series [3], this molecule registered an EC50 of 560 nM. Moreover, the outcome in series [4] was Active.

As to `COc1ccc2c(=O)c3ccccc3oc2c1O`, the Activity in series [1], in series [2] and in series [5] was 0 to 25% each time. In addition, it took 480 nM to reach a half-maximal effect in series [3] (EC50). For the same molecule, the result in series [4] was Active.

For the molecule `O=c1c2ccccc2oc2ccc(O)c(O)c12`, the Activity in series [1], in series [2] and in series [5] was 0 to 25% each time. The result in series [6] was inactive. The molecule further showed an EC50 in series [3] of 130 nM. Also, the result in series [4] was Active.

On to `COc1cc2oc3c(OC)c4c(cc3c(=O)c2cc1OC)CCC(C)(C)O4`, for which the Activity in series [1], in series [2] and in series [5] was 0 to 25% each time. This molecule returned an EC50 in series [3] of 540 nM. Also, the result in series [4] was Active.

Consider `O=c1c2ccccc2oc2ccc(O)cc12`, for which the Activity in series [1], in series [2] and in series [5] was 0 to 25% throughout. The molecule also registered an EC50 in series [3] of 760 nM. For the same molecule, the outcome in series [4] was Active.

As for `COc1cc2c(c3oc4ccccc4c(=O)c13)OC(C)(C)CC2`, the Activity in series [1], in series [2] and in series [5] was 0 to 25% throughout. Moreover, in series [3], a half-maximal response (EC50) required 730 nM. Also, the outcome in series [4] was Active.

Turning to `COc1c2c(cc3c(=O)c4cc(Cl)ccc4oc13)OC(C)(C)CC2`, the Activity in series [1], in series [2] and in series [5] was 0 to 25% throughout. The molecule further gave an EC50 in series [3] of 860 nM. The outcome in series [4] was Active.

As for `O=C(COc1ccc2c(=O)c3ccccc3oc2c1)N[C@H](c1ccccc1)[C@@H](O)c1ccccc1`, the Activity in series [1] was 0 to 25%; in series [2], 76 to 100%; in series [5] it was 0 to 25%. Besides, in series [4], the result was Active.

Regarding `Oc1ccc(/C=C/c2cc(O)cc(O)c2)cc1` [RESVERATROL], the result in series [8] and in series [4] was Active. The molecule also came in with an EC50 in series [3] of 600 nM.

Take `COc1cc(C=O)c2c(=O)c3ccccc3oc2c1OC`: the Activity in series [1] lay within 51 to 75%; in series [2], 0 to 25%; in series [5], 0 to 25%. Further, the result in series [4] was Active.

With `CC1(C)C=Cc2cc(O)c3c(=O)c4ccccc4oc3c2O1`, the Activity in series [1], in series [2] and in series [5] was 0 to 25% each time. Further, the EC50 in series [3] was found to be 290 nM. For the same molecule, the result in series [4] was Active.

Consider `C#CCOc1ccc(/C=C/C(=O)/C=C/c2ccc(OCC#C)c(OC)c2)cc1OC`, for which the Activity in series [1] lay in the range of 0 to 25%; in series [2] it was 26 to 50%; in series [5], 0 to 25%. Further, in series [4], the result was Active.
